Key:
Experiment in all cases: relative viability (nuclei count vs DMSO), 5 days (fraction); higher = more cells survive
NCI-H1395 = tested on: NCI-H1395
Summary of the method: (§1)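 Lung cancer cell lines were pin-tool dosed in 1536-well plates on the day after seeding, with either a lone drug or a fixed anchor-drug dose plus five library-drug doses (not always all listed) in √10 steps. Nuclei were counted on 4× images after 5 days. Relative viability is the ratio of treated-well to vehicle-well nuclei counts, with each value a median of duplicate plates.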

NCI-H650 = tested on: NCI-H650
Summary of the method: as §1

NCI-H2170 = tested on: NCI-H2170
Summary of the method: as §1

HARA = tested on: HARA
Summary of the method: as §1

LU99A = tested on: LU99A
Summary of the method: as §1

NCI-H1793 = tested on: NCI-H1793
Summary of the method: as §1

NCI-H23 = tested on: NCI-H23
Summary of the method: as §1

LXF-289 = tested on: LXF-289
Summary of the method: as §1

NCI-H1666 = tested on: NCI-H1666
Summary of the method: as §1

NCI-H2023 = tested on: NCI-H2023
Summary of the method: as §1

PC-3 [JPC-3] = tested on: PC-3 [JPC-3]
Summary of the method: as §1

NCI-H460 = tested on: NCI-H460
Summary of the method: as §1

Q: Which results are given for O=c1[nH]c2ccccc2n1C1CCN(CCCC(c2ccc(F)cc2)c2ccc(F)cc2)CC1 [Pimozide] + Nc1nc2[nH]cc(CCc3ccc(C(=O)N[C@@H](CCC(=O)O)C(=O)O)cc3)c2c(=O)[nH]1 [Pemetrexed] (partner 0.2 µM)?
A: relative viability (NCI-H1395; first compound 0.08 µM): 0.887; relative viability (NCI-H1395; first compound 0.253 µM): 0.825; relative viability (NCI-H1395; first compound 0.8 µM): 0.822; relative viability (NCI-H1395; first compound 2.53 µM): 0.823; relative viability (NCI-H1395; first compound 8 µM): 0.831; relative viability (NCI-H650; first compound 0.08 µM): 0.939; relative viability (NCI-H650; first compound 0.253 µM): 0.936; relative viability (NCI-H650; first compound 0.8 µM): 0.793; relative viability (NCI-H650; first compound 2.53 µM): 0.914; relative viability (NCI-H650; first compound 8 µM): 1.02; relative viability (NCI-H2170; first compound 0.08 µM): 0.273; relative viability (NCI-H2170; first compound 0.253 µM): 0.242; relative viability (NCI-H2170; first compound 0.8 µM): 0.263; relative viability (NCI-H2170; first compound 2.53 µM): 0.258; relative viability (NCI-H2170; first compound 8 µM): 0.258; relative viability (HARA; first compound 0.08 µM): 0.245; relative viability (HARA; first compound 0.253 µM): 0.262; relative viability (HARA; first compound 0.8 µM): 0.241; relative viability (HARA; first compound 2.53 µM): 0.282; relative viability (HARA; first compound 8 µM): 0.198; relative viability (LU99A; first compound 0.08 µM): 0.277; relative viability (LU99A; first compound 0.8 µM): 0.179; relative viability (LU99A; first compound 2.53 µM): 0.185; relative viability (LU99A; first compound 8 µM): 0.191; relative viability (NCI-H1793; first compound 0.08 µM): 0.807; relative viability (NCI-H1793; first compound 0.253 µM): 0.798; relative viability (NCI-H1793; first compound 0.8 µM): 0.8; relative viability (NCI-H1793; first compound 2.53 µM): 0.829; relative viability (NCI-H1793; first compound 8 µM): 0.676; relative viability (NCI-H23; first compound 0.08 µM): 0.64; relative viability (NCI-H23; first compound 0.253 µM): 0.716; relative viability (NCI-H23; first compound 0.8 µM): 0.609; relative viability (NCI-H23; first compound 2.53 µM): 0.59; relative viability (NCI-H23; first compound 8 µM): 0.591; relative viability (LXF-289; first compound 0.08 µM): 0.859; relative viability (LXF-289; first compound 0.253 µM): 0.873; relative viability (LXF-289; first compound 0.8 µM): 0.859; relative viability (LXF-289; first compound 2.53 µM): 0.869; relative viability (LXF-289; first compound 8 µM): 0.874; relative viability (NCI-H1666; first compound 0.08 µM): 0.808; relative viability (NCI-H1666; first compound 0.253 µM): 0.809; relative viability (NCI-H1666; first compound 0.8 µM): 0.834; relative viability (NCI-H1666; first compound 2.53 µM): 0.891; relative viability (NCI-H1666; first compound 8 µM): 0.782; relative viability (NCI-H2023; first compound 0.08 µM): 0.215; relative viability (NCI-H2023; first compound 0.253 µM): 0.231; relative viability (NCI-H2023; first compound 0.8 µM): 0.226; relative viability (NCI-H2023; first compound 2.53 µM): 0.179; relative viability (NCI-H2023; first compound 8 µM): 0.164; relative viability (PC-3 [JPC-3]; first compound 0.253 µM): 1.08; relative viability (PC-3 [JPC-3]; first compound 0.8 µM): 1.04; relative viability (PC-3 [JPC-3]; first compound 2.53 µM): 1.08; relative viability (PC-3 [JPC-3]; first compound 8 µM): 0.985; relative viability (NCI-H460; first compound 0.08 µM): 0.05; relative viability (NCI-H460; first compound 0.253 µM): 0.0643
